Counter-ions that a name gives are not always drawn.
Columns and labels:
delF508-CFTR = target: T1, delF508-CFTR (Homo sapiens, UniProt P13569, DEL508-508); assay: Measurement of delF508-CFTR functional activity in primary human bronchial epithelial cells (HBECs) using Multi-Transepithelial Clamp Circuit (MTECC-24) assay; assay type: cell-based; conditions: primary CF HBECs; for MTECC24 CFHBEC- Amax %: test compound added 24h before assay plus potentiator, relative to reference combination (2 μM corrector + 0.5 μM potentiator); for EC50: test compound added 24h before assay, in the presence of potentiator, mean of at least two replicates, read-out: MTECC24 CFHBEC- EC50
T1 construct: functional activity of the CFTR channel (Chloride ion transport) in patient derived primary human bronchial epithelial cells; host or cells: patient-derived primary human bronchial epithelial cells (delF508-CFTR)
Text: [formula] Measurement of delF508-CFTR Functional Activity in Primary Human Bronchial Epithelial Cells (HBECs) Using Multi-Transepithelial Clamp Circuit (MTECC-24) Assay
This assay measures the functional activity of the CFTR channel (Chloride ion transport) in patient derived primary human bronchial epithelial cells with forskolin activation and in the presence of the CFTR corrector/potentiator combo.
Primary human delF508-CFTR bronchial epithelial cells were purchased from Asterand and cultured according to previously established methods (Fulcher et al. (2005) Methods Mol Med 107: 183-206). Briefly, vendor supplied cells were rapidly defrosted and added to a T175 flask in 50 mL growth media (Lonza BEBM media with Lonza BEGM singlequots). Media was replaced after 24h and then cells were fed every other day until cells were 80-90% confluent, at which point cells were cryopreserved. These P1 vials were thawed at 37° C. as needed and added to T175 flasks in 50 mL growth media at 5×10^5 cells/flask. Media was replaced after 24h, and then cells were fed every other day until 80-90% confluent. Cells were lifted with 5 mL accutase at 37° C. for 5 minutes, centrifuged at 1000 rpms for 5 min (300 g), and resuspended in differentiation media (50% BEBM in DMEM, BEGM singlequots, all trans retinoic acid (5×10^−8M)). Cells were then counted and cell suspension was added to collagen coated inserts at 3×10^4 cells/insert in 0.15 mL with 0.5 mL differentiation media on the basolateral side.
Apical and basolateral media were replaced on alternate days, and following day 7 (or when confluent plus 2 days), air liquid interface was established for approximately two weeks by removal of apical media. One day prior to use on the MTECC24 system (EP-Devices, EP Design, Belgium), 0.15 mL of warmed (37° C.) PBS was added to the apical surface of the cultures and returned to humidifier (37° C., 5% CO2 incubator) for 30 min before aspirating the apical surface to remove any mucus.
Compound treatments were then prepared. Compound dilutions, typically a 10 point concentration response with 1 in 3 dilution steps, were made in 100% DMSO before dilution 1 in 1000 into differentiation medium with a final DMSO concentration of 0.1% or 0.2% for the study. Compound containing medium was then transferred into the wells of a 24 well plate at 0.5 mL per well and warmed for 30 min in a 37° C. incubator prior to transferring washed inserts into the compound containing plates. Cells were incubated in compound containing medium (basolateral only) for 24h prior to measurement in the MTECC24 system.
Following 24 hr treatment, compound dilutions were prepared again, diluted 1 in 1000 into 37° C. assay medium (F-12 Coon's modified, 20 mM HEPES pH7.4 with TRIS Base, No FCS or bicarbonate). Cells which were treated for 24h with test compound were then transferred into plates containing 0.75 mL compound treatment in assay medium (basolateral) and 0.25 mL of the compound containing assay medium was added to the apical surface. The plates were then transferred to the heated plate compartments of the MTECC24 system for 45 min prior to measurements (this can also be done in a non-CO2 37° C. humidified incubator). Basolateral temperature should not exceed 36.5° C. and apical temperature should be approximately 35.5° C.
Modulators were added sequentially as follows while the MTECC24 instrument recorded the equivalent short circuit current (Ieq):
Prior to dilution into F-12 medium the stocks are as follows:
Amiloride stock is 10 mM in H2O
Forskolin Stock is 10 mM in 100% DMSO
(S)-3-amino-6-methoxy-N-(3,3,3-trifluoro-2-hydroxy-2-methylpropyl)-5-(trifluoromethyl)picolinamide is 0.5 mM stock in 100% DMSO
INH-172 (4-[[4-Oxo-2-thioxo-3-[3-trifluoromethyl)phenyl]-5-thiazolidinylidene]methyl]benzoic acid) stock is 30 mM in 100% DMSO
The data was normalized using the median signal from wells treated with 0.1% DMSO as a baseline. […]

[1] = target: T2, horseradish peroxidase (HRP) tagged delF508-CFTR (Homo sapiens, UniProt P13569, DEL508-508); assay: Measurement of delF508-CFTR-HRP surface expression in CFBE41o- cells; assay type: cell-based; conditions: delF508-CFTR-HRP surface expression, CFBE41o- cells; for Emax: read-out: DelF508-CFTR-HRP Amax %; for EC50: read-out: DelF508-CFTR-HRP EC50;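 as to DelF508-CFTR-HRP Amax %: percent efficacy relative to reference corrector lumacaftor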
T2 construct: expressed in transfected cells
Summary of the method: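 Surface-trafficked delF508-CFTR detected via extracellular HRP tag, read as luminescence from a membrane-impermeant substrate in CFBE41o- cells. Cells pre-induced 48h with 500 ng/mL doxycycline, then exposed 24h at 37° C to a 10-point, 3-fold dilution series from 10 μM (DMSO ≤0.5%). Triplicate dose-responses fitted logistically for EC50 after per-plate normalization; fold change versus reference compound.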

T1 sequence (P13569 with tags, fused parts or gaps DEL508-508): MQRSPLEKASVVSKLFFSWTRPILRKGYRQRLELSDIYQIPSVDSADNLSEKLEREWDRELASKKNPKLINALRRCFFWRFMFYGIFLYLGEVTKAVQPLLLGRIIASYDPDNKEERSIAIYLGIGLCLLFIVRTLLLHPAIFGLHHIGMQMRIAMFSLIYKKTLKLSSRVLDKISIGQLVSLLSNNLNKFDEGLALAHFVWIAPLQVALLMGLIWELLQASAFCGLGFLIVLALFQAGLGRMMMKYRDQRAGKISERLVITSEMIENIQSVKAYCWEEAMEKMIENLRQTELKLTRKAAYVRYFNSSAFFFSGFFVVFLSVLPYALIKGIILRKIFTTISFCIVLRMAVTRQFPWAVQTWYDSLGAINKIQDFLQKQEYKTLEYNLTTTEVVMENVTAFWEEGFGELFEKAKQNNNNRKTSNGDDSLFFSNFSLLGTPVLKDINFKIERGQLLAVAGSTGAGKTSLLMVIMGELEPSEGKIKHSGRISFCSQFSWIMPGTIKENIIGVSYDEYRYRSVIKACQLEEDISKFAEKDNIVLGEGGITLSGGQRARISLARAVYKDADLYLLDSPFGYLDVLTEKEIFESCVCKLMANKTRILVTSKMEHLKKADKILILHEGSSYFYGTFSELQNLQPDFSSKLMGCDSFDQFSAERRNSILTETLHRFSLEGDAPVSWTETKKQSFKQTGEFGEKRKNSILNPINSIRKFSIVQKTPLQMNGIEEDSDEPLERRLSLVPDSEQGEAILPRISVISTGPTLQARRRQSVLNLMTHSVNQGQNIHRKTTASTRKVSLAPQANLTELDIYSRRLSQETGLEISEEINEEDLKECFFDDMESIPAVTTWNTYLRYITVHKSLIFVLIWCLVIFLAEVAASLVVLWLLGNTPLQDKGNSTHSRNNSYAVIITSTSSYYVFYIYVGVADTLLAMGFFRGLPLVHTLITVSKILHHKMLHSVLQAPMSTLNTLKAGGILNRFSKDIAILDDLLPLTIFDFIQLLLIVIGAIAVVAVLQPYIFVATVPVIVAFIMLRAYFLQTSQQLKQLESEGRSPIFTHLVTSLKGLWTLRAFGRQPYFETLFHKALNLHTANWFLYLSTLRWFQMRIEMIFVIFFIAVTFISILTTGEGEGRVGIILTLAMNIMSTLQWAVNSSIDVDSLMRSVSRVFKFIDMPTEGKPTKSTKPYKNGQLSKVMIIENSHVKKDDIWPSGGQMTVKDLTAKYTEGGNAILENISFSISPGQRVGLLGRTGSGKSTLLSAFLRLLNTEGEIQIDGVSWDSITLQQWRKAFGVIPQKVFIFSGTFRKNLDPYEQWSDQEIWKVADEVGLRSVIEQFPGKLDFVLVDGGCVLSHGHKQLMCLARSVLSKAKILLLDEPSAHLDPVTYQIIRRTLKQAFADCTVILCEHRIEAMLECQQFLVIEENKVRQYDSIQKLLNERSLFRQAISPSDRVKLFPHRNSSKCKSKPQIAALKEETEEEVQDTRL
T2 sequence (P13569 with tags, fused parts or gaps DEL508-508): as above

| SMILES | MTECC24 CFHBEC- Amax % (delF508-CFTR) [%] | EC50 (delF508-CFTR) [nM] | Emax [1] [%] | EC50 [1] [nM] |
| --- | --- | --- | --- | --- |
| CC1(C(=O)O)CCN(c2cccc(S(=O)(=O)Nc3ccc(C(F)(F)F)c(-c4ccccc4Cl)n3)n2)CC1 [Example 238, 1-(6-(N-(6-(2-chlorophenyl)-5-(trifluoromethyl)pyridin-2-yl)sulfamoyl)pyridin-2-yl)-4-methylpiperidine-4-carboxylic Acid] | 59.0 | 19.6 | 426 | 3460 |
| Cc1ccccc1-c1nc(NS(=O)(=O)c2cccc(OC3CC(C(=O)O)C3)n2)ccc1C(F)(F)F (mixture of isomers) [Example 331, 3-((6-(N-(6-(o-tolyl)-5-(trifluoromethyl)pyridin-2-yl)sulfamoyl)pyridin-2-yl)oxy)cyclobutanecarboxylic Acid] | 67.4 | 64.9 | 218 | 1520 |
| Cc1ccccc1-c1nc(NS(=O)(=O)c2cccc(N3CC4C(N)C4C3)n2)ccc1C(F)(F)F (stereo not shown) [Example 107, 6-(6-amino-3-azabicyclo[3.1.0]hexan-3-yl)-N-(6-(o-tolyl)-5-(trifluoromethyl)pyridin-2-yl)pyridine-2-sulfonamide Hydrochloride] | 72.2 | 111 | 756 | 1990 |
| Cc1cccc(C)c1-c1nc(NS(=O)(=O)c2cccc(N)n2)ccc1Br [Example 3, 6-amino-N-(5-bromo-6-(2,6-dimethylphenyl)pyridin-2-yl)pyridine-2-sulfonamide] | 60.3 | 1.9 | 688 | 1440 |
| Cc1ccccc1-c1nc(NS(=O)(=O)c2cccc(N[C@H]3C[C@@H](O)C3)n2)ccc1C(F)(F)F [Example 283, N-[6-(2-methylphenyl)-5-(trifluoromethyl)pyridin-2-yl]-6-{[(1s,3s)-3-hydroxycyclobutyl]amino}pyridine-2-sulfonamide] | 84.0 | 0.8 | – | 1590 |
| Cc1c(F)cccc1-c1nc(NS(=O)(=O)c2cccc(N)n2)ccc1C(F)(F)F [Example 7, 6-amino-N-(6-(3-fluoro-2-methylphenyl)-5-(trifluoromethyl)pyridin-2-yl)pyridine-2-sulfonamide] | 66.8 | 2.7 | 610 | 1630 |
| Cc1ccccc1-c1nc(NS(=O)(=O)c2cccc(N3CCNC(=O)C3)n2)ccc1C(F)(F)F [Example 190, 6-(3-oxopiperazin-1-yl)-N-(6-(o-tolyl)-5-(trifluoromethyl)pyridin-2-yl)pyridine-2-sulfonamide] | 64.5 | 13.2 | 565 | 3410 |
| Cc1c(F)cccc1-c1nc(NS(=O)(=O)c2cccc(N)n2)ccc1Cl [Example 12, 6-amino-N-(5-chloro-6-(3-fluoro-2-methylphenyl)pyridin-2-yl)pyridine-2-sulfonamide] | 85.2 | 9.7 | 555 | 1320 |
| Cc1ccccc1-c1nc(NS(=O)(=O)c2cccc(N3CCN(C4COC4)CC3)n2)ccc1C(F)(F)F [Example 187, 6-(4-(oxetan-3-yl)piperazin-1-yl)-N-(6-(o-tolyl)-5-(trifluoromethyl)pyridin-2-yl)pyridine-2-sulfonamide] | 78.8 | 92 | 634 | 2560 |
| COc1ccc(Cl)c(-c2nc(NS(=O)(=O)c3cccc(N4CC(O)C4)n3)ccc2C(F)(F)F)c1 [Example 226, N-(6-(2-chloro-5-methoxyphenyl)-5-(trifluoromethyl)pyridin-2-yl)-6-(3-hydroxyazetidin-1-yl)pyridine-2-sulfonamide] | 83.5 | 12.9 | 721 | 2400 |

The remaining lines, values ahead:

| MTECC24 CFHBEC- Amax % (delF508-CFTR) [%] | EC50 (delF508-CFTR) [nM] | Emax [1] [%] | EC50 [1] [nM] | SMILES |
| --- | --- | --- | --- | --- |
| 63.0 | 21.8 | 198 | 1350 | Cc1ccc(F)cc1-c1nc(NS(=O)(=O)c2cccc(N3CCC(C)(C(=O)O)CC3)n2)ccc1Cl [Example 257, 1-(6-{[5-chloro-6-(5-fluoro-2-methylphenyl)pyridin-2-yl]sulfamoyl}pyridin-2-yl)-4-methylpiperidine-4-carboxylic Acid] |
| 105.9 | 0.85 | 601 | 1470 | CCc1ccccc1-c1nc(NS(=O)(=O)c2cccc(N3CCC[C@H](C(=O)O)C3)n2)ccc1C(F)(F)F [Example 370, (S)-1-(6-(N-(6-(2-ethylphenyl)-5-(trifluoromethyl)pyridin-2-yl)sulfamoyl)pyridin-2-yl)piperidine-3-carboxylic Acid] |
| 75.5 | 8 | 724 | 967 | Cc1cccc(C)c1-c1nc(NS(=O)(=O)c2cccc(N)n2)ccc1C(F)(F)F [Example 2, 6-amino-N-(6-(2,6-dimethylphenyl)-5-(trifluoromethyl)pyridin-2-yl)pyridine-2-sulfonamide] |
| 78.4 | 25 | 729 | 2140 | Cc1cccc(C)c1-c1nc(NS(=O)(=O)c2cccc(N3CCNC(=O)C3)n2)ccc1Cl [Example 131, N-(5-chloro-6-(2,6-dimethylphenyl)pyridin-2-yl)-6-(3-oxopiperazin-1-yl)pyridine-2-sulfonamide] |
| 66.4 | 4.7 | 303 | 2100 | Cc1c(F)cccc1-c1nc(NS(=O)(=O)c2cccc(N3CC(C)(O)C3)n2)ccc1C(F)(F)F [Example 215, N-(6-(3-fluoro-2-methylphenyl)-5-(trifluoromethyl)pyridin-2-yl)-6-(3-hydroxy-3-methylazetidin-1-yl)pyridine-2-sulfonamide] |
| 66.3 | 38 | 157 | 308 | Cc1cc(F)ccc1-c1nc(NS(=O)(=O)c2cccc(N3CC(C)(O)C3)n2)ccc1C(F)(F)F [Example 217, N-(6-(4-fluoro-2-methylphenyl)-5-(trifluoromethyl)pyridin-2-yl)-6-(3-hydroxy-3-methylazetidin-1-yl)pyridine-2-sulfonamide] |
| 78.0 | 47.8 | 224 | 2490 | CC1(O)CN(c2cccc(S(=O)(=O)Nc3ccc(Cl)c(-c4ccc(F)cc4Cl)n3)n2)C1 [Example 213, N-(5-chloro-6-(2-chloro-4-fluorophenyl)pyridin-2-yl)-6-(3-hydroxy-3-methylazetidin-1-yl)pyridine-2-sulfonamide] |

From patent US11066369B2, “N-(pyridin-2-yl)pyridine-sulfonamide derivatives and their use in the treatment of disease” (Novartis AG, priority 2016, dated 2021)
